Drawing on ChEMBL document CHEMBL1158837, “Cyclohexadepsipeptides from the insect pathogenic fungus Hirsutella nivea BCC 2594” (J Nat Prod, 2005), this text covers Activity, MIC and IC50 for two compounds.

Series [1] concerns Plasmodium falciparum. The experiment in a line: Antimalarial activity against multidrug-resistant Plasmodium falciparum K1 at 20 ug/ml after 42 hrs as reduced [3H]hypoxanthine uptake. The format is functional, organism-based.
The next series concerns Vero. In words: Cytotoxicity against african green monkey Vero cells at 50 ug/ml by SRB assay. Particulars: chlorocebus sabaeus. It counts as cell-based.
Series [2] deals with Mycobacterium tuberculosis. In words: Antitubercular activity against Mycobacterium tuberculosis H37Ra after 4 days by microplate alamar blue assay. It counts as functional. As to conditions: 96 h. A general note: The colour change of resazurin is a common sign of viable cells or microbes.
Series [3] deals with Plasmodium falciparum. In words: Antimalarial activity against multidrug-resistant Plasmodium falciparum K1 after 42 hrs by [3H]hypoxanthine uptake. It counts as functional, organism-based.

Converted amounts (≈) assume the structure as drawn. The source made the active and inactive calls. The calls are words filed in the database; no cut-off is given here. Square brackets hold non-standard residues; d marks the D form. Peptide text beside a SMILES is read from it. Hica(2S) = CC(C)C[C@H](O)C(=O)O; NMeL = CN[C@@H](CC(C)C)C(=O)O; Hiv = CC(C)[C@H](O)C(=O)O

In general, MIC refers to the lowest concentration that inhibits growth of the organism. With `CC(C)C[C@@H]1OC(=O)[C@H](C(C)C)OC(=O)[C@H](CO)NC(=O)[C@H]([C@@H](C)O)NC(=O)[C@H](CC(C)C)N(C)C(=O)[C@H](Cc2ccccc2)NC1=O` [HIRSUTATIN A] (HELM PEPTIDE1{F.[meL].T.S.[CC(C)[C@H](O[*:1])C(=O)[*:2]].[CC(C)C[C@H](O[*:1])C(=O)[*:2]]}$PEPTIDE1,PEPTIDE1,1:R1-6:R2$$$V2.0), the result in the series on Plasmodium falciparum [1] was inactive. Further, the Activity result in the series with Vero is on record as “Non-toxic”. Further, in series [2], the minimum inhibitory concentration (MIC) was 50 µg/mL (≈ 73.9 µM).
In general, IC50 refers to the midpoint of a concentration-inhibition curve. On to `COc1ccc(C[C@@H]2NC(=O)[C@H](CC(C)C)OC(=O)[C@H](C(C)C)OC(=O)[C@H](CO)NC(=O)[C@H]([C@@H](C)O)NC(=O)[C@H](CC(C)C)N(C)C2=O)cc1` [HIRSUTATIN B] (cyclo([Hica(2S)]Y(Me)[NMeL]TS[Hiv])), for which the Activity entry in the series on Vero is given as “Non-toxic”. Also, it took 50 µg/mL (≈ 70.7 µM) to inhibit growth in series [2] (MIC). The compound further registered a 50% inhibitory concentration (IC50) in the series on Plasmodium falciparum [3] of 5.8 µg/mL (≈ 8.21 µM).
